In PubChem BioAssay AID248 (DTP/NCI, 2004):
Where “and” joins values, the source holds several entries; their conditions need not be identical. Identical values can stand only once. Toxic doses and inconclusive results are not listed. Cut-off read from the data, not from the text of the source: active = T/C of 150% or more; inactive = T/C below 125%. Bridge positions count the residues as written; N and C are the ends. Square brackets hold non-standard residues; d marks the D form. Peptide text beside a SMILES is read from it. NMeV = CN[CH](C(=O)O)C(C)C; Sar = CNCC(=O)O

Tested on: L1210 leukemia ip in BDF1 mice, survival T/C
Test: NCI In Vivo Anticancer Drug Screen. Data for tumor model L1210 Leukemia (intraperitoneal) in B6D2F1 (BDF1) mice
Details: endpoint: mean survival time, higher = longer survival
Method in brief: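 Tumor cells were implanted, animals were treated, and survival was followed. The result divides the treated measurement by the vehicle-control measurement.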

[1] = dose: 100.0 mg/kg/injection, schedule: Q04DX002 (ip), vehicle: saline with Tween-80
[2] = dose: 200.0 mg/kg/injection, schedule: Q04DX002 (ip), vehicle: saline with Tween-80
[3] = dose: 400.0 mg/kg/injection, schedule: Q04DX002 (ip), vehicle: saline with Tween-80
[4] = dose: 100.0 mg/kg/injection, schedule: Q04DX003 (ip), vehicle: saline with Tween-80
[5] = dose: 200.0 mg/kg/injection, schedule: Q04DX003 (ip), vehicle: saline with Tween-80
[6] = dose: 400.0 mg/kg/injection, schedule: Q04DX003 (ip), vehicle: saline with Tween-80
[7] = dose: 50.0 mg/kg/injection, schedule: Q01DX009 (ip), vehicle: saline

Measured: T/C

CCOC(=O)C(Cc1ccc2ccccc2n1)C(C)=O (stereo not given)
inactive: dose: 50.0 mg/kg/injection, schedule: Q01DX009 (ip), vehicle: DMSO 86 % of control | dose: 100.0 mg/kg/injection, schedule: Q01DX009 (ip), vehicle: DMSO 102 % of control

COc1ccc2c(c1)C(=O)C1CC3(CCC21)OCCO3 (stereo not given)
inactive: dose: 100.0 mg/kg/injection, schedule: Q01DX009 (ip), vehicle: Klucel (hydroxypropylcellulose) (HPC) 101 % of control | dose: 100.0 mg/kg/injection, schedule: Q04DX003 (ip), vehicle: Klucel (hydroxypropylcellulose) (HPC) 109 % of control | dose: 200.0 mg/kg/injection, schedule: Q01DX009 (ip), vehicle: Klucel (hydroxypropylcellulose) (HPC) 97 % of control | dose: 200.0 mg/kg/injection, schedule: Q04DX003 (ip), vehicle: Klucel (hydroxypropylcellulose) (HPC) 93 % of control | dose: 400.0 mg/kg/injection, schedule: Q01DX009 (ip), vehicle: Klucel (hydroxypropylcellulose) (HPC) 95 % of control | dose: 400.0 mg/kg/injection, schedule: Q04DX003 (ip), vehicle: Klucel (hydroxypropylcellulose) (HPC) 100 % of control

O=[N+]([O-])c1ccc(N=Cc2ccc(Cl)cc2Cl)c(O)c1
inactive: [1] 86 % of control | [2] 120 % of control | [3] 99 % of control

O=C(O)CCCC1CCCCC1.[Cu+2]
inactive: dose: 2.5 mg/kg/injection, schedule: Q01DX009 (ip), vehicle: Klucel (hydroxypropylcellulose) (HPC) 101 % of control | dose: 2.5 mg/kg/injection, schedule: Q04DX003 (ip), vehicle: Klucel (hydroxypropylcellulose) (HPC) 97 % of control | dose: 5.0 mg/kg/injection, schedule: Q01DX009 (ip), vehicle: Klucel (hydroxypropylcellulose) (HPC) 101 % of control | dose: 5.0 mg/kg/injection, schedule: Q04DX003 (ip), vehicle: Klucel (hydroxypropylcellulose) (HPC) 101 % of control | dose: 10.0 mg/kg/injection, schedule: Q01DX009 (ip), vehicle: Klucel (hydroxypropylcellulose) (HPC) 92 % of control | dose: 10.0 mg/kg/injection, schedule: Q04DX003 (ip), vehicle: Klucel (hydroxypropylcellulose) (HPC) 97 % of control

Cc1cc(C)c(-c2cc(C(O)C3OC4OC(C)(C)OC4C4OC(C)(C)OC34)on2)c(C)c1 (stereo not given)
inactive: [1] 97 % of control | [2] 87 % of control | [3] 87 % of control

CCN(CC)Cc1nc2nc(Cl)c(Cl)nc2[nH]1
inactive: dose: 25.0 mg/kg/injection, schedule: Q01DX009 (ip), vehicle: saline with Tween-80 97 % of control | dose: 50.0 mg/kg/injection, schedule: Q01DX009 (ip), vehicle: saline with Tween-80 105 % of control | [4] 99 % of control

FC(F)(F)c1cc(Br)c2ccc3ncccc3c2n1
inactive: [1] 111 % of control | [2] 107 % of control | [3] 96 % of control

CC(C)C1NC(=O)C(N)C(C)OC(=O)C(C(C)C)N(C)C(=O)CN(C)C(=O)C2CCCN2C1=O (stereo not given) (tested in a mixture with another compound) (H-TVP[Sar][NMeV]; ester 1-C; configuration not given here)
inactive: dose: 0.1 mg/kg/injection, schedule: Q01DX001 (ip), vehicle: saline + alcohol 103 % of control | dose: 0.2 mg/kg/injection, schedule: Q01DX001 (ip), vehicle: saline + alcohol 107 % of control | dose: 0.4 mg/kg/injection, schedule: Q01DX001 (ip), vehicle: saline + alcohol 124 % of control | dose: 0.8 mg/kg/injection, schedule: Q01DX001 (ip), vehicle: saline + alcohol 122 % of control | dose: 15.6 micrograms/kg/injection, schedule: Q01DX009 (ip), vehicle: other 95 % of control | dose: 25.0 micrograms/kg/injection, schedule: Q01DX009 (ip), vehicle: saline + alcohol 106 % of control | dose: 31.3 micrograms/kg/injection, schedule: Q01DX009 (ip), vehicle: other 92 % of control | dose: 62.5 micrograms/kg/injection, schedule: Q01DX009 (ip), vehicle: other 97 % of control | dose: 75.0 micrograms/kg/injection, schedule: Q04DX003 (ip), vehicle: saline + alcohol 103 % of control | dose: 125.0 micrograms/kg/injection, schedule: Q01DX009 (ip), vehicle: other 105 % of control | dose: 150.0 micrograms/kg/injection, schedule: Q04DX003 (ip), vehicle: saline + alcohol 106 % of control | dose: 250.0 micrograms/kg/injection, schedule: Q01DX009 (ip), vehicle: other 121 % of control | dose: 300.0 micrograms/kg/injection, schedule: Q04DX003 (ip), vehicle: saline + alcohol 121 % of control | dose: 500.0 micrograms/kg/injection, schedule: Q01DX009 (ip), vehicle: other 103 % of control | dose: 1200.0 micrograms/kg/injection, schedule: Q04DX003 (ip), vehicle: saline + alcohol 116 % of control

COc1ccc2nc3cc(Cl)ccc3c(NCCCCN(C)C)c2c1
inactive: dose: 6.0 mg/kg/injection, schedule: Q04DX003 (ip), vehicle: saline 97 % of control | dose: 12.5 mg/kg/injection, schedule: Q04DX003 (ip), vehicle: saline 99 % of control

CCCCN(CCCC)CC(O)c1cnc2c(Cl)cc(Cl)cc2c1Cl (stereo not given)
inactive: dose: 100.0 mg/kg/injection, schedule: Q01DX009 (ip), vehicle: saline with Tween-80 101 % of control | [4] 100 % of control | dose: 200.0 mg/kg/injection, schedule: Q01DX009 (ip), vehicle: saline with Tween-80 102 % of control | [5] 102 % of control | [6] 108 % of control

COc1ccc(C(=O)C(C)(CN(C)C)c2ccccc2)cc1 (stereo not given)
inactive: dose: 25.0 mg/kg/injection, schedule: Q01DX009 (ip), vehicle: saline 93 % of control | dose: 25.0 mg/kg/injection, schedule: Q04DX003 (ip), vehicle: saline 92 % of control | [7] 100 % of control | dose: 50.0 mg/kg/injection, schedule: Q04DX003 (ip), vehicle: saline 94 % of control | dose: 100.0 mg/kg/injection, schedule: Q01DX009 (ip), vehicle: saline 102 % of control | dose: 100.0 mg/kg/injection, schedule: Q04DX003 (ip), vehicle: saline 93 % of control and 101 % of control

CCC1=C[C@H]2CN(CCc3c([nH]c4ccccc34)[C@@](C(=O)OC)(c3cc4c(cc3OC)N(C)[C@H]3[C@@](O)(C(=O)OC)[C@H](OC(C)=O)[C@]5(CC)C=CCN6CC[C@]43[C@@H]65)C2)C1
inactive: dose: 0.25 mg/kg/injection, schedule: Q01DX009 (ip), vehicle: water 109 % of control | dose: 0.5 mg/kg/injection, schedule: Q01DX009 (ip), vehicle: water 101 % of control | dose: 1.0 mg/kg/injection, schedule: Q01DX009 (ip), vehicle: water 111 % of control | dose: 2.0 mg/kg/injection, schedule: Q01DX009 (ip), vehicle: water 103 % of control | dose: 4.0 mg/kg/injection, schedule: Q01DX009 (ip), vehicle: water 114 % of control | dose: 8.0 mg/kg/injection, schedule: Q01DX009 (ip), vehicle: water 112 % of control

COc1ccc(NC(=O)/C=C/C(=O)Nc2ccc(OC)cc2)cc1
inactive: [4] 100 % of control | [5] 112 % of control | [6] 100 % of control

CC1(C)CCCC(C)(C)N1
inactive: dose: 50.0 mg/kg/injection, schedule: Q01DX001 (ip), vehicle: saline 94 % of control

CC(C)COCCCN
inactive: dose: 10.0 mg/kg/injection, schedule: Q01DX009 (ip), vehicle: saline 95 % of control | [7] 95 % of control

N#Cc1cc(C#N)c(NN)nc1N
inactive: [4] 86 % of control | [5] 94 % of control | [6] 92 % of control

CC(=O)C(/C=N/C(=O)N(C)C)=C(/C)O
inactive: [4] 98 % of control | [5] 104 % of control | [6] 104 % of control

COc1ccc(OC)c(-c2cc(-c3ccccc3)nc(-c3cccc([N+](=O)[O-])c3)c2)c1
inactive: dose: 100.0 mg/kg/injection, schedule: Q04DX002 (ip), vehicle: gum acacia 102 % of control | dose: 200.0 mg/kg/injection, schedule: Q04DX002 (ip), vehicle: gum acacia 97 % of control | dose: 400.0 mg/kg/injection, schedule: Q04DX002 (ip), vehicle: gum acacia 91 % of control
